Consider 13 compounds from PubChem BioAssay (NCI).

Test systems include MCF7 breast; SK-MEL-28 melanoma; UACC-62 melanoma; SK-MEL-5 melanoma; MOLT-4 leukemia; UO-31 renal; OVCAR-3 ovarian; HOP-62 NSCLC; RPMI-8226 leukemia; SF-268 CNS; OVCAR-5 ovarian.
What all share (test): NCI anticancer screen, dose series, 48 h

Molecules are shown by their SMILES.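 Results reflect a 48-hour exposure of cells in 96-well plates to compound at five concentrations. Definition used: TGI = concentration required for complete inhibition of growth.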

Regarding `CC(C)(C)C#CI1OC(=O)c2ccccc21`, the TGI with MCF7 breast is 15.4 µM; with SK-MEL-28 melanoma, 17.8 µM; in the assay with UACC-62 melanoma, 13.8 µM; in the assay with SK-MEL-5 melanoma it was 15.5 µM; with MOLT-4 leukemia it was 10 µM; in the assay on UO-31 renal, 14.6 µM. Besides, the TGI with OVCAR-3 ovarian was determined as 8.84 µM; in the assay with HOP-62 NSCLC, 27.2 µM; in the assay on RPMI-8226 leukemia it was 5.11 µM; in the assay on SF-268 CNS it was 14.3 µM; in the assay on OVCAR-5 ovarian, 21.9 µM.
Regarding `C=CCN(c1cc(OC)c2[nH]c(C(=O)O)c(C)c2c1[N+](=O)[O-])S(C)(=O)=O`, the TGI in the assay with MCF7 breast, in the assay with SK-MEL-28 melanoma, in the assay on UACC-62 melanoma, in the assay with SK-MEL-5 melanoma, in the assay with MOLT-4 leukemia and in the assay on UO-31 renal was over 100 µM throughout. The TGI in the assay on OVCAR-3 ovarian, in the assay with HOP-62 NSCLC, in the assay on RPMI-8226 leukemia, in the assay on SF-268 CNS and in the assay with OVCAR-5 ovarian was over 100 µM each time.
On to `CCOC(=O)C(NC(=O)CC)(Nc1ccccc1F)C(F)(F)F` (configuration not stated), for which the TGI with MCF7 breast, in the assay with SK-MEL-28 melanoma, in the assay on UACC-62 melanoma, in the assay with SK-MEL-5 melanoma, with MOLT-4 leukemia and in the assay on UO-31 renal was over 100 µM throughout. The TGI in the assay on OVCAR-3 ovarian, in the assay on RPMI-8226 leukemia, in the assay with SF-268 CNS and with OVCAR-5 ovarian was over 100 µM in each case.
On to `CC(Br)CN(CC(C)Br)c1ccc2c(c1)Cc1ccccc1-2` (configuration not stated), for which the TGI in the assay with MCF7 breast amounted to 19.6 µM; with SK-MEL-28 melanoma, 37.3 µM; with UACC-62 melanoma, 24.2 µM; in the assay on SK-MEL-5 melanoma, 25.2 µM; in the assay with MOLT-4 leukemia it was 34.6 µM; in the assay with UO-31 renal, 24.9 µM. The TGI in the assay on OVCAR-3 ovarian was found to be 24 µM; with HOP-62 NSCLC it was 23.9 µM; with RPMI-8226 leukemia, 71.8 µM; with SF-268 CNS, 23.3 µM; in the assay with OVCAR-5 ovarian, 34.9 µM.
Turning to `Cc1cccc2c(N)c3cccc(C(=O)NCC[N+](C)(C)[O-])c3nc12`, the TGI in the assay with MCF7 breast was over 100 µM; with SK-MEL-28 melanoma, 45.2 µM; with UACC-62 melanoma, 26.8 µM; with SK-MEL-5 melanoma, over 100 µM; in the assay on MOLT-4 leukemia it was over 100 µM; in the assay with UO-31 renal, over 100 µM. In addition, the TGI is over 100 µM in the assay on OVCAR-3 ovarian; 36.5 µM in the assay on HOP-62 NSCLC; over 100 µM in the assay on RPMI-8226 leukemia; over 100 µM in the assay on SF-268 CNS; 27.6 µM in the assay with OVCAR-5 ovarian.
`CCOP(=O)(CC1OC(CO)C(O)C1O)OCC` (configuration not stated): the TGI in the assay on MCF7 breast, in the assay on SK-MEL-28 melanoma, with UACC-62 melanoma, in the assay on SK-MEL-5 melanoma, in the assay with MOLT-4 leukemia and with UO-31 renal was over 100 µM throughout. The TGI with OVCAR-3 ovarian, in the assay with HOP-62 NSCLC, with RPMI-8226 leukemia, in the assay on SF-268 CNS and in the assay on OVCAR-5 ovarian was over 100 µM throughout.
With `Fc1ccc(OCc2ccc3nc(-c4ccccc4)c(Cl)nc3c2)cc1`, the TGI with MCF7 breast is over 100 µM; with SK-MEL-28 melanoma, over 100 µM; in the assay with UACC-62 melanoma, over 100 µM; in the assay with SK-MEL-5 melanoma, over 100 µM; in the assay with MOLT-4 leukemia, 60 µM; in the assay with UO-31 renal it was over 100 µM. Further, the TGI in the assay on OVCAR-3 ovarian is over 100 µM; in the assay with HOP-62 NSCLC, 31.3 µM; in the assay with RPMI-8226 leukemia, over 100 µM; in the assay with SF-268 CNS, over 100 µM; in the assay with OVCAR-5 ovarian it was over 100 µM.
As to `COc1ccc2c(c1)-c1nc(=S)n(CCN(C)C)c3ccc([N+](=O)[O-])c(c13)N2`, the TGI with MCF7 breast came out at 3.43 µM; in the assay on SK-MEL-28 melanoma it was 2.88 µM; with UACC-62 melanoma, 23.5 µM; in the assay with SK-MEL-5 melanoma, 7.61 µM; in the assay on MOLT-4 leukemia, 0.741 µM; in the assay on UO-31 renal, 13.1 µM. The TGI with OVCAR-3 ovarian was 19.3 µM; with HOP-62 NSCLC it was 2.24 µM; in the assay with RPMI-8226 leukemia, 2.76 µM; in the assay on SF-268 CNS, 2.16 µM; in the assay with OVCAR-5 ovarian it was 8.04 µM.
Take `O=c1[nH]nc(-c2ccc([N+](=O)[O-])cc2)[nH]1`: the TGI in the assay on MCF7 breast, with SK-MEL-28 melanoma, in the assay on UACC-62 melanoma, with MOLT-4 leukemia, with UO-31 renal and in the assay on OVCAR-3 ovarian was over 100 µM each time. The TGI in the assay with HOP-62 NSCLC, in the assay with RPMI-8226 leukemia, with SF-268 CNS and in the assay on OVCAR-5 ovarian was over 100 µM throughout.
As to `CC1=NN(c2cccc(Cl)c2)C2(C1=Cc1ccc(N(C)C)cc1)C(Cl)C(=O)N2c1nc2ccccc2s1` (configuration not stated), the TGI in the assay with MCF7 breast, in the assay with SK-MEL-28 melanoma, in the assay with SK-MEL-5 melanoma, with MOLT-4 leukemia, with UO-31 renal and with OVCAR-3 ovarian was over 100 µM each time. Besides, the TGI is over 100 µM in the assay with HOP-62 NSCLC, over 100 µM with RPMI-8226 leukemia, 52.4 µM in the assay with SF-268 CNS and over 100 µM with OVCAR-5 ovarian.
As to `C[C@@H](CCO)OC1OC(COC(=O)C(C)(C)C)C(OC(=O)C(C)(C)C)C(OC(=O)C(C)(C)C)C1OC(=O)C(C)(C)C` (some centres not stated), the TGI in the assay on MCF7 breast is over 100 µM; with SK-MEL-28 melanoma it was over 100 µM; in the assay with UACC-62 melanoma, over 100 µM; with SK-MEL-5 melanoma, 58.1 µM; in the assay on MOLT-4 leukemia it was over 100 µM; with OVCAR-3 ovarian it was over 100 µM. The TGI with HOP-62 NSCLC is over 100 µM; in the assay on RPMI-8226 leukemia, 81.8 µM; in the assay with SF-268 CNS it was over 100 µM; in the assay on OVCAR-5 ovarian, over 100 µM.
With `O=c1n(CCCN2CCOCC2)nc2n1-c1ccc3ccccc3c1SC2`, the TGI in the assay on MCF7 breast was over 100 µM; in the assay with SK-MEL-28 melanoma it was over 100 µM; in the assay on UACC-62 melanoma it was 47.2 µM; with SK-MEL-5 melanoma it was 47.7 µM; with MOLT-4 leukemia, over 100 µM; in the assay with UO-31 renal, 45.7 µM. Further, the TGI in the assay with OVCAR-3 ovarian is over 100 µM; with HOP-62 NSCLC, over 100 µM; with RPMI-8226 leukemia, 80.8 µM; in the assay with OVCAR-5 ovarian, over 100 µM.
In the case of `CC(C)NC(=O)OCc1c(COC(=O)NC(C)C)n(C)c2c1ccc1cc(Cl)c(Cl)cc12`, the TGI turned out to be 14.9 µM in the assay with MCF7 breast; 28 µM in the assay on UACC-62 melanoma; 30.1 µM in the assay on SK-MEL-5 melanoma; 27.9 µM in the assay with MOLT-4 leukemia; 32.8 µM with UO-31 renal; 31.1 µM with OVCAR-3 ovarian. Also, the TGI with HOP-62 NSCLC worked out at 28 µM; in the assay with RPMI-8226 leukemia it was 39.5 µM; in the assay on SF-268 CNS, 29.4 µM; in the assay on OVCAR-5 ovarian it was 29.4 µM.
